Assay results reported in patent US5162328A, “N-[3-[2-(1H-imidazol-1-yl)ethoxy]phenyl]-4-(2-thienyl)-2-pyrimidinamine and pharmacologically acceptable salts” (American Cyanamid Company, priority 1991, dated 1992).
Read-outs that look alike come from different tables or passages of the source.

Test: Pharmacokinetics in dogs (plasma concentration by HPLC)
Format: in vivo, dog (beagle)
Conditions: for AUC(0-t) / Cmax / Tmax / half-life / AUC(0-inf) / concentration at 0.5 h / concentration at 1 h / concentration at 2 h / concentration at 4 h / concentration at 7 h / concentration at 12 h: 2 mg/kg/day PO; for AUC(0-inf): read-out: AUCO- (to infinite time)
Description: Since dogs are used in toxicology studies of antiasthma compounds, this species is chosen for pharmacokinetic evaluations. Use of the dog permits the pharmacokinetic comparison of 2 or more compounds in the same test animal, an evaluation which could not be conveniently performed in a smaller species. For each test compound, normal dogs are given a dose of 2.0 mg/kg/day for 5 consecutive days. There is a washout period of 1 month between the study of each of the test compounds in the same four dogs. Each test compound is administered as a solution of 5 mg/ml in either 0.05 or 0.1N HCl which is dispensed into a gelatin capsule immediately prior to dosage.
Heparinized blood samples are obtained from each animal on the first, third and fifth day of dosage at 0.5, 1.0, 2.0, 4.0, 7.0, 12.0 and 24.0 hours after the dose. The samples are centrifuged immediately to obtain plasma which is frozen until analyzed.
Analysis of plasma is performed using High Performance Liquid Chromatography (HPLC). The analytical procedure is essentially identical for each compound. The internal standard used for N-[3-[2-(1H-imidazol-1-yl)ethoxy]phenyl]-4-(2-thienyl)2-pyrimidinamine is 2-chloro-11-(4-methyl-1-piperazinyl)dibenz[b,f][1,4]oxazepine succinate, while for 2-methyl-N^4 -[4-(4-pyridinyl)-2-pyrimidinyl]-1,4-benzenediamine dihydrochloride and N-[4-[2-(diethylamino)ethoxy]phenyl]-4-(4-pyridinyl)-2-pyrimidnamine dihydrochloride the internal standard is 7-ethoxy-coumarin. In a typical procedure, a 0.4 ml volume of acetonitrile containing internal standard is added a 0.2 ml volume of serum. The sample is mixed by vortexing and centrifuged. The clear protein free supernatent fluid is decanted into a clean tube and evaporated to dryness. The dry residue is dissolved in 0.2 ml of HPLC mobile phase and 50 ul of this solution injected. Peaks corresponding to the test compound being measured and to the internal standard compound are quantitated by their absorption of ultraviolet light at 280 nm. Each set of analytical samples is accompanied by the analysis of a group of standard dog plasma samples prepared to contain amounts of the compound being measured which encompasses the concentration range of the samples.
Four normal beagle dogs weighing between 9.2 and 10.2 Kg are used in the study.

[1] = dog, plasma, po, 2 mg/kg/day, Dog 3, day 3
[2] = dog, plasma, po, 2 mg/kg/day, Dog 3, day 5
[3] = dog, plasma, po, 2 mg/kg/day, Dog 4, day 1
[4] = dog, plasma, po, 2 mg/kg/day, Dog 4, day 3
[5] = dog, plasma, po, 2 mg/kg/day, Dog 4, day 5
[6] = dog, plasma, po, 2 mg/kg/day, Mean, day 1
[7] = dog, plasma, po, 2 mg/kg/day, Mean, day 3
[8] = dog, plasma, po, 2 mg/kg/day, Mean, day 5

For `c1cc(Nc2nccc(-c3cccs3)n2)cc(OCCn2ccnc2)c1` [N-[3-[2-(1H-imidazol-1-yl)ethoxy]phenyl]-4-(2-thienyl)-2-pyrimidinamine], the AUC(0-t) [1] was 799 ng·h/mL, the Cmax [1] was 350 ng/mL and the Tmax [1] was 1 h. The half-life [1] was 1.62 h, the AUC(0-inf) [1] was 955 ng·h/mL and the concentration at 0.5 h (dog, plasma, po, 2 mg/kg/day, Dog 3, day 5, 0.5 h) was less than 30 ng/mL. It also gave a concentration at 1 h (dog, plasma, po, 2 mg/kg/day, Dog 3, day 5, 1 h) of 272 ng/mL, a concentration at 2 h (dog, plasma, po, 2 mg/kg/day, Dog 3, day 5, 2 h) of 233 ng/mL and a concentration at 4 h (dog, plasma, po, 2 mg/kg/day, Dog 3, day 5, 4 h) of 114 ng/mL. It also gave a concentration at 7 h (dog, plasma, po, 2 mg/kg/day, Dog 3, day 5, 7 h) of less than 30 ng/mL, a concentration at 12 h (dog, plasma, po, 2 mg/kg/day, Dog 3, day 5, 12 h) of less than 30 ng/mL and an AUC(0-t) [2] of 682 ng·h/mL. It also gave a Cmax [2] of 272 ng/mL, a Tmax [2] of 1 h and a half-life [2] of 1.94 h. It also gave an AUC(0-inf) [2] of 978 ng·h/mL, a concentration at 0.5 h (dog, plasma, po, 2 mg/kg/day, Dog 4, day 1, 0.5 h) of 173 ng/mL and a concentration at 1 h (dog, plasma, po, 2 mg/kg/day, Dog 4, day 1, 1 h) of 364 ng/mL. For the same molecule, the concentration at 2 h (dog, plasma, po, 2 mg/kg/day, Dog 4, day 1, 2 h) was 325 ng/mL, the concentration at 4 h (dog, plasma, po, 2 mg/kg/day, Dog 4, day 1, 4 h) was 172 ng/mL and the concentration at 7 h (dog, plasma, po, 2 mg/kg/day, Dog 4, day 1, 7 h) was 40 ng/mL. It also gave a concentration at 12 h (dog, plasma, po, 2 mg/kg/day, Dog 4, day 1, 12 h) of less than 30 ng/mL, an AUC(0-t) [3] of 1340 ng·h/mL and a Cmax [3] of 364 ng/mL. For the same molecule, the Tmax [3] was 1 h, the half-life [3] was 1.64 h and the AUC(0-inf) [3] was 1440 ng·h/mL. For the same molecule, the concentration at 0.5 h (dog, plasma, po, 2 mg/kg/day, Dog 4, day 3, 0.5 h) was 65 ng/mL, the concentration at 1 h (dog, plasma, po, 2 mg/kg/day, Dog 4, day 3, 1 h) was 220 ng/mL and the concentration at 2 h (dog, plasma, po, 2 mg/kg/day, Dog 4, day 3, 2 h) was 144 ng/mL. The concentration at 4 h (dog, plasma, po, 2 mg/kg/day, Dog 4, day 3, 4 h) was 38 ng/mL, the concentration at 7 h (dog, plasma, po, 2 mg/kg/day, Dog 4, day 3, 7 h) was less than 30 ng/mL and the concentration at 12 h (dog, plasma, po, 2 mg/kg/day, Dog 4, day 3, 12 h) was less than 30 ng/mL. The AUC(0-t) [4] was 452 ng·h/mL, the Cmax [4] was 220 ng/mL and the Tmax [4] was 1 h. It also gave a half-life [4] of 1.61 h, an AUC(0-inf) [4] of 551 ng·h/mL and a concentration at 0.5 h (dog, plasma, po, 2 mg/kg/day, Dog 4, day 5, 0.5 h) of less than 30 ng/mL. The concentration at 1 h (dog, plasma, po, 2 mg/kg/day, Dog 4, day 5, 1 h) was 191 ng/mL, the concentration at 2 h (dog, plasma, po, 2 mg/kg/day, Dog 4, day 5, 2 h) was 197 ng/mL and the concentration at 4 h (dog, plasma, po, 2 mg/kg/day, Dog 4, day 5, 4 h) was 71 ng/mL. For the same molecule, the concentration at 7 h (dog, plasma, po, 2 mg/kg/day, Dog 4, day 5, 7 h) was less than 30 ng/mL, the concentration at 12 h (dog, plasma, po, 2 mg/kg/day, Dog 4, day 5, 12 h) was less than 30 ng/mL and the AUC(0-t) [5] was 510 ng·h/mL. It also gave a Cmax [5] of 197 ng/mL, a Tmax [5] of 2 h and an AUC(0-inf) [5] of 694 ng·h/mL. For the same molecule, the concentration at 0.5 h (dog, plasma, po, 2 mg/kg/day, Mean of 4 dogs, day 1, 0.5 h) was 235 ng/mL, the concentration at 1 h (dog, plasma, po, 2 mg/kg/day, Mean of 4 dogs, day 1, 1 h) was 405 ng/mL and the concentration at 2 h (dog, plasma, po, 2 mg/kg/day, Mean of 4 dogs, day 1, 2 h) was 318 ng/mL. It also gave a concentration at 4 h (dog, plasma, po, 2 mg/kg/day, Mean of 4 dogs, day 1, 4 h) of 188 ng/mL, a concentration at 7 h (dog, plasma, po, 2 mg/kg/day, Mean of 4 dogs, day 1, 7 h) of 52 ng/mL and a concentration at 12 h (dog, plasma, po, 2 mg/kg/day, Mean of 4 dogs, day 1, 12 h) of less than 30 ng/mL. For the same molecule, the concentration at 0.5 h (dog, plasma, po, 2 mg/kg/day, Mean of 4 dogs, day 3, 0.5 h) was 89 ng/mL, the concentration at 1 h (dog, plasma, po, 2 mg/kg/day, Mean of 4 dogs, day 3, 1 h) was 225 ng/mL and the concentration at 2 h (dog, plasma, po, 2 mg/kg/day, Mean of 4 dogs, day 3, 2 h) was 148 ng/mL. For the same molecule, the concentration at 4 h (dog, plasma, po, 2 mg/kg/day, Mean of 4 dogs, day 3, 4 h) was 33 ng/mL, the concentration at 7 h (dog, plasma, po, 2 mg/kg/day, Mean of 4 dogs, day 3, 7 h) was less than 30 ng/mL and the concentration at 12 h (dog, plasma, po, 2 mg/kg/day, Mean of 4 dogs, day 3, 12 h) was less than 30 ng/mL. It also gave a concentration at 0.5 h (dog, plasma, po, 2 mg/kg/day, Mean of 4 dogs, day 5, 0.5 h) of 106 ng/mL, a concentration at 1 h (dog, plasma, po, 2 mg/kg/day, Mean of 4 dogs, day 5, 1 h) of 276 ng/mL and a concentration at 2 h (dog, plasma, po, 2 mg/kg/day, Mean of 4 dogs, day 5, 2 h) of 212 ng/mL. For the same molecule, the concentration at 4 h (dog, plasma, po, 2 mg/kg/day, Mean of 4 dogs, day 5, 4 h) was 82 ng/mL, the concentration at 7 h (dog, plasma, po, 2 mg/kg/day, Mean of 4 dogs, day 5, 7 h) was less than 30 ng/mL and the concentration at 12 h (dog, plasma, po, 2 mg/kg/day, Mean of 4 dogs, day 5, 12 h) was less than 30 ng/mL. For the same molecule, the AUC(0-t) [6] was 1380 ng·h/mL, the Cmax [6] was 405 ng/mL and the Tmax [6] was 1 h. The half-life [6] was 2.27 h, the AUC(0-inf) [6] was 1620 ng·h/mL and the AUC(0-t) [7] was 444 ng·h/mL. The Cmax [7] was 225 ng/mL, the Tmax [7] was 1 h and the half-life [7] was 1.47 h. For the same molecule, the AUC(0-inf) [7] was 595 ng·h/mL, the AUC(0-t) [8] was 659 ng·h/mL and the Cmax [8] was 277 ng/mL. It also gave a Tmax [8] of 1.25 h, a half-life [8] of 1.5 h and an AUC(0-inf) [8] of 871 ng·h/mL. The k el (dog, plasma, po, 2 mg/kg/day, derived from mean of half-life values, read-out: elimination constant (converted)) was 0.000107 s⁻¹ and the “plasma half-life (in words)” value (dogs, compared with the two compounds of U.S. Pat. No. 4,788,195) was “increased plasma half-life and reproducibility”.
